molecular target: IRE-1α (Homo sapiens (Human), UniProt O75460); assay: Cellular EC50: endogenous XBP-1 splicing in myeloma cells (MM.1s, DTT stress, RT-PCR); assay type: cell-based; conditions: average cellular EC50, XBP-1 splicing in myeloma cells
Procedure: Human myeloma MM.1s cells are incubated with a compound for 1.25 hours before stressing the cells with 2 mM dithiothreitol (DTT). After an additional 45 minutes (2 hours total) with compound and DTT, the cells are harvested with TRIZOL® (a mono-phasic solution of phenol and guanidine isothiocyanate), and total RNA is prepared as directed by the manufacturer (Invitrogen). Human XBP-1 is amplified by RT-PCR with the following primers, which flank the 26 base unconventional intron excised by IRE-1α:
RT-PCR of unstressed (U) cells then generates the upper band. When cells are stressed (S) with the endoplasmic reticulum (ER) stressing agent DTT, IRE-1α is activated due to accumulating unfolded protein and the resulting RT-PCR product is 26 base pairs shorter.
Compounds which pass specificity assays are assayed for cellular EC50 using endogenous XBP-1 splicing in myeloma cells. XBP-1 is regulated through the excision of a 26 nucleotide intron from the XBP-1 mRNA by the highly specific endoribonuclease activity of IRE-1α. […] This splicing event is used to measure IRE-1α activity on XBP-1 mRNA in cells and tissues.
Briefly, compounds are incubated in the presence or absence of an ER stress agent (e.g., DTT), and the ratio of XBP-1u (unspliced) to XBP-1s (spliced) is quantified by RT-PCR. The ED50 is determined as the 50% XBP-1s to total XPB-1 levels.

IRE-1α, sequence (O75460 19-977): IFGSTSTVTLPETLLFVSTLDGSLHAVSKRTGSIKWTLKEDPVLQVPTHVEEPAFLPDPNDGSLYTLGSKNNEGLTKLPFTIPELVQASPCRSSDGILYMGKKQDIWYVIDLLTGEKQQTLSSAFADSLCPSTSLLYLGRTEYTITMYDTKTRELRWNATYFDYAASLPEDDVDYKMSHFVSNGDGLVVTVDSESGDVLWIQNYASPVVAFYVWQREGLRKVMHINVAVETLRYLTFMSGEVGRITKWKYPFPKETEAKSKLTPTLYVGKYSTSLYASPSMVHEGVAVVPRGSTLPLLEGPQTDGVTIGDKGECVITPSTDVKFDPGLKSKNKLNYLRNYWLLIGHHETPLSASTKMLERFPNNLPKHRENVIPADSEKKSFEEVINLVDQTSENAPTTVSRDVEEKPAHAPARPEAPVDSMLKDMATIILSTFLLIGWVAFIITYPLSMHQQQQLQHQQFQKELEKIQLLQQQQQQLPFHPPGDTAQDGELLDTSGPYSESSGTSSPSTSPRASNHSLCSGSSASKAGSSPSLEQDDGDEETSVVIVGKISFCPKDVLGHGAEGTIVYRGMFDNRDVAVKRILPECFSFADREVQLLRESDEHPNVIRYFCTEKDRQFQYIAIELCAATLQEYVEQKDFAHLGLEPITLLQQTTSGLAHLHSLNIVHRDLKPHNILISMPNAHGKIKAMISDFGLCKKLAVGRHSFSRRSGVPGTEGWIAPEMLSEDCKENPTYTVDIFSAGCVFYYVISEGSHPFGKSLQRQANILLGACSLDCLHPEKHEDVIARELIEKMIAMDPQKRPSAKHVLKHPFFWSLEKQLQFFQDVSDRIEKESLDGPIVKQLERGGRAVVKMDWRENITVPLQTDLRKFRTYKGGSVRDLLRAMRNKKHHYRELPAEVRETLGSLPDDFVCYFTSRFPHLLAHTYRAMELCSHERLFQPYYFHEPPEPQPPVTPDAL

Row | SMILES | EC50 [µM]
1 | Cn1c(CCC(=O)O)nc2ccc(O)c(C=O)c21 [Example 240] | > 10
2 | COCCNC(=O)CCc1nc2c(C=O)c(O)ccc2n1C [Example 241] | > 10
3 | CN1CCN(C(=O)CCc2nc3c(C=O)c(O)ccc3n2C)CC1 [Example 244] | > 10
4 | CCOC(=O)CCc1nc2c(C=O)c(O)ccc2n1C [Example 245] | < 10
5 | Cn1c(CCC(=O)O)nc2c(C=O)c(O)ccc21 [Example 246] | > 10
6 | CCOC(=O)CCc1nc2c(C=O)c(O)ccc2o1 [Example 247] | > 10
7 | O=Cc1c(O)ccc2oc(CCC(=O)O)nc12 [Example 248] | > 10
8 | COCCNC(=O)CCc1nc2c(C=O)c(O)ccc2o1 [Example 249] | > 10
9 | CN1CCN(C(=O)CCc2nc3c(C=O)c(O)ccc3o2)CC1 [Example 251] | > 10
10 | CCNC(=O)CCc1nc2c(C=O)c(O)ccc2o1 [Example 252] | > 10
11 | Cc1nc2c(C=O)c(O)ccc2o1 [Example 255] | < 10
12 | Cc1nc2ccc(O)c(C=O)c2o1 [Example 256] | > 10
13 | O=Cc1c(O)ccc2ocnc12 [Example 257] | > 10
14 | COC(=O)Cc1cc2c(C=O)c(O)ccc2s1 [Example 264] | > 10
15 | O=Cc1c(O)ccc2sc(CC(=O)O)cc12 [Example 265] | > 10
16 | CCOC(=O)CCc1cc2c(C=O)c(O)ccc2s1 [Example 267] | > 10
17 | CCNC(=O)CCc1cc2c(C=O)c(O)ccc2s1 [Example 269] | > 10
18 | CN(C)CCNC(=O)CCc1cc2c(C=O)c(O)ccc2s1 [Example 271] | < 10
19 | CCOC(=O)c1cc2c(C=O)c(O)ccc2o1 [Example 280] | > 10

Other lines, results leading:

Row | EC50 [µM] | SMILES
20 | > 10 | Cn1c(CCC(=O)N2CCOCC2)nc2c(C=O)c(O)ccc21 [Example 242]
21 | > 10 | Cn1c(CCC(=O)NCCN2CCOCC2)nc2c(C=O)c(O)ccc21 [Example 243]
22 | > 10 | O=Cc1c(O)ccc2oc(CCC(=O)N3CCOCC3)nc12 [Example 250]
23 | < 10 | O=Cc1c(O)ccc2oc(CCC(=O)NCCN3CCOCC3)nc12 [Example 253]
24 | > 10 | CC(C(=O)N1CCOCC1)c1nc2c(C=O)c(O)ccc2o1 (centres unmarked) [Example 254]
25 | > 10 | COCCNC(=O)c1cc2c(C=O)c(O)ccc2s1 [Example 258]
26 | > 10 | O=Cc1c(O)ccc2sc(C(=O)N3CCOCC3)cc12 [Example 259]
27 | > 10 | CN1CCN(C(=O)c2cc3c(C=O)c(O)ccc3s2)CC1 [Example 260]
28 | < 10 | CCNC(=O)c1cc2c(C=O)c(O)ccc2s1 [Example 261]
29 | < 10 | O=Cc1c(O)ccc2sc(C(=O)NCCN3CCOCC3)cc12 [Example 262]
30 | > 10 | CN(C)CCNC(=O)c1cc2c(C=O)c(O)ccc2s1 [Example 263]
31 | < 10 | COCCNC(=O)CCc1cc2c(C=O)c(O)ccc2s1 [Example 266]
32 | > 10 | O=Cc1c(O)ccc2sc(CCC(=O)N3CCOCC3)cc12 [Example 268]
33 | > 10 | COCCNC(=O)c1cc2c(C=O)c(O)ccc2[nH]1 [Example 273]
34 | > 10 | O=Cc1c(O)ccc2[nH]c(C(=O)N3CCOCC3)cc12 [Example 274]
35 | > 10 | CN1CCN(C(=O)c2cc3c(C=O)c(O)ccc3[nH]2)CC1 [Example 275]
36 | > 10 | CCNC(=O)c1cc2c(C=O)c(O)ccc2[nH]1 [Example 276]
37 | > 10 | O=Cc1c(O)ccc2[nH]c(C(=O)NCCN3CCOCC3)cc12 [Example 277]
38 | > 10 | CN(C)CCNC(=O)c1cc2c(C=O)c(O)ccc2[nH]1 [Example 278]
39 | > 10 | CCOC(=O)c1cc2c(C=O)c(O)ccc2[nH]1 [Example 279]
40 | > 10 | O=Cc1c(O)ccc2oc(C(=O)O)cc12 [Example 281]
41 | > 10 | COCCNC(=O)c1cc2c(C=O)c(O)ccc2o1 [Example 282]
42 | > 10 | O=Cc1c(O)ccc2oc(C(=O)N3CCOCC3)cc12 [Example 283]
43 | > 10 | CN1CCN(C(=O)c2cc3c(C=O)c(O)ccc3o2)CC1 [Example 284]
44 | < 10 | CCNC(=O)c1cc2c(C=O)c(O)ccc2o1 [Example 285]
45 | < 10 | O=Cc1c(O)ccc2oc(C(=O)NCCN3CCOCC3)cc12 [Example 286]

system: human myeloma RPMI8226 tumor xenografts; assay: RPMI8226 xenograft efficacy model; assay type: in vivo, SCID mice; conditions: after cessation of therapy
Procedure: SCID mice are evaluated for their ability to support implantation of desired tumor cells in support of model development and characterization. Mice are injected intravenously […] or implanted either subcutaneously (SC) or intraperitoneally (IP). To generate a relevant animal model mimicking human disease, it is desirable that all three approaches are evaluated for improved implantation rates and relevant disease progression, as is well known in the art. SC injections provide an easy way to measure tumor growth and efficacy, and IV and IP injections represent a more physiologically relevant model of human tumor spread. SC injections are given primarily in the flank, while IV injections are administered in the tail vein. Mice are manually restrained for SC and IP injections, and a Broome mouse restrainer is used for IV injections.
SCID mice are implanted with tumor cells (human RPMI8226 myeloma cells) via IP, IV or SC routes based on the results from the xenograft model development studies (above). Mice are treated with compound or mock treated (vehicle) for a period of up to 4-5 weeks. Compound administration can be via IV, IP, PO or SC routes. […]
Mice are monitored for tumor growth, regression and general health. […] Tumor growth is measured by calipers, ultrasound, or by abdominal lavage. Biomarkers in the blood or tumor can evaluated (primarily XBP-1 splicing). […]

Row | SMILES | tumor recurrence
46 | CC(C)C[C@H](NC(=O)[C@H](Cc1ccccc1)NC(=O)c1cnccn1)B(O)O [bortezomib, [(1R)-3-methyl-1-[[(2S)-1-oxo-3-phenyl-2-[(pyrazinylcarbonyl)amino]propyl]amino]butyl]boronic acid] | tumors often recurred and grew into large masses

system: XBP-1 splicing; assay: Inhibition of endogenous XBP-1 splicing in RPMI 8226 cells with thapsigargin (RT-PCR); assay type: cell-based, human; conditions: 300 nM, 2 hours
Procedure: PCR amplification products were run on a 4% agarose gel and stained with ethidium bromide. The inverse image is shown.
RPMI 8226 cells were grown in monolayer culture using Dulbecco's Modified Eagle Medium (DMEM) supplemented with 10% fetal calf serum (FCS) at 37° C. and 5% CO2. Compounds were kept as 10 mM stock in DMSO at −20° C. and diluted in medium to 10 μM. Thapsigargin (Tg) was resuspended in DMSO and diluted in medium.
Procedures for measuring XBP-1s and XBP-1u mRNAs have been described previously (Volkmann et al., J. Biol. Chem. 286, 12743-55, 2011). Briefly, total RNA was harvested from cells or tissue using TRIZOL® (Invitrogen) according to the manufacture's procedures. After ethanol precipitation and resuspension of the RNA, RIBOGREEN® (Invitrogen) was used to quantify the yield- and normalize the RNA concentration in the source tube containing isolated RNA. RT-PCR was performed by oligo dT priming, […]® II (Invitrogen) and reverse transcription using the […] GOLD® Kit (Applied Biosystems) according to the manufacturer's protocols. Primers for human XBP-1 were
All DNA oligos were purchased from IDT DNA Technologies. PCR reactions were run on a Bio-Rad PTC-100® 96-well thermocycler; heating at 94° C. for 30 seconds, annealing at 58° C. for 30 seconds polymerizing at 72° C. for 30 seconds for 35 cycles.

Row | SMILES | conversion of XBP-1u to XBP-1s
47 | C/C=C(/C)C(=O)O[C@H]1C(C)=C2[C@H]([C@@H]1OC(=O)CCCCCCC)[C@@](C)(OC(C)=O)C[C@H](OC(=O)CCC)[C@@]1(O)[C@H]2OC(=O)[C@@]1(C)O [Thapsigargin] | near complete conversion of XBP-1u to XBP-1s

Source: US9693992B2 (MannKind Corporation, priority 2010, dated 2017)
